The values below come from patent publication US10844032B2, “Substituted benzofuran, benzothiophene and indole Mcl-1 inhibitors” (Vanderbilt University, priority 2012, dated 2020).

This assay deals with recombinant Mcl-1 (residues 172-327) (Homo sapiens (Human), UniProt Q07820). In words: Bak peptide fluorescence polarization anisotropy competition assay, Mcl-1. It counts as binding. The conditions noted are these: read-out: Ki for inhibition of Mcl-1. (Fluorescence polarisation rises when a labelled molecule tumbles more slowly, as on binding a larger partner.)
[1] abbreviates: Table 2, Ki range, FITC-Bak peptide 10 nM, Mcl-1 14 nM.

Read-outs that look alike come from different tables or passages of the source.

recombinant Mcl-1 (residues 172-327), sequence (Q07820 172-327): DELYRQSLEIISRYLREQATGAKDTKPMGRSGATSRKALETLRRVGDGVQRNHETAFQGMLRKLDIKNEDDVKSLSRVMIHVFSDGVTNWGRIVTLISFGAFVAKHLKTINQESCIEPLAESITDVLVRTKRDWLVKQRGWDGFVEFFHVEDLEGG

As a reminder, the Ki is a measure of affinity in units of concentration, obtained from inhibition or displacement. On to `Cc1cc(OCCCc2c(C(=O)NS(=O)(=O)c3ccccc3)[nH]c3c(-c4ccnn4C(C)C)cccc23)cc(C)c1Cl` [Example 304, 3-(3-(4-chloro-3,5-dimethylphenoxy)propyl)-7-(1-isopropyl-1H-pyrazol-5-yl)-N-(phenylsulfonyl)-1H-indole-2-carboxamide], for which the Ki under setting [1] was at most 100 nM.
As for `Cc1cc(OCCCc2c(C(=O)NS(=O)(=O)CCNC(=O)C3CCCCC3)[nH]c3cc(Cl)ccc23)cc(C)c1Cl` [Example 226, 6-chloro-3-(3-(4-chloro-3,5-dimethylphenoxy)propyl)-N-((2-(cyclohexanecarboxamido)ethyl)sulfonyl)-1H-indole-2-carboxamide], under setting [1], the Ki was at most 100 nM.
Regarding `Cc1cc(OCCCc2c(C(=O)NS(=O)(=O)CCNC(=O)c3cc(Br)no3)[nH]c3ccccc23)cc(C)c1Cl` [Example 185, 3-bromo-N-(2-(N-(3-(3-(4-chloro-3,5-dimethylphenoxy)propyl)-1H-indole-2-carbonyl)sulfamoyl)ethyl)isoxazole-5-carboxamide], the inhibitory constant (Ki) was 501 to 999 nM.
`Cc1cc(OCCCc2c(C(=O)NS(=O)(=O)CCNC(=O)CC34CC5CC(CC(C5)C3)C4)[nH]c3ccccc23)cc(C)c1Cl` [Example 179, N-((2-(2-((1s,3s)-adamantan-1-yl)acetamido)ethyl)sulfonyl)-3-(3-(4-chloro-3,5-dimethylphenoxy)propyl)-1H-indole-2-carboxamide]: the Ki is 101 to 299 nM.
Take `Cc1cc(OCCCc2c(C(=O)NS(=O)(=O)CCNC(=O)c3cccc(Oc4ccccc4)c3)[nH]c3ccccc23)cc(C)c1Cl` [Example 167, 3-(3-(4-chloro-3,5-dimethylphenoxy)propyl)-N-((2-(3-phenoxybenzamido)ethyl)sulfonyl)-1H-indole-2-carboxamide]: the inhibitory constant (Ki) was 101 to 299 nM.
On to `O=C(O)c1oc2ccccc2c1CCCc1cccc2ccccc12` [Example 22, 3-(3-(naphthalen-1-yl)propyl)benzofuran-2-carboxylic acid], for which the Ki was 10000 to 50000 nM.
Take `CS(=O)(=O)NC(=O)c1cc2ccccc2n1CCCOc1cccc2ccccc12` [Example 14, N-(methylsulfonyl)-1-(3-(naphthalen-1-yloxy)propyl)-1H-indole-2-carboxamide]: the Ki was 301 to 500 nM.
Consider `Cc1cccc(S(=O)(=O)NC(=O)c2[nH]c3c(-c4c(CO)nn(C)c4C)cccc3c2CCCOc2cc(C)c(Cl)c(C)c2)c1` [Example 204, 3-(3-(4-chloro-3,5-dimethylphenoxy)propyl)-7-(3-(hydroxymethyl)-1,5-dimethyl-1H-pyrazol-4-yl)-N-(m-tolylsulfonyl)-1H-indole-2-carboxamide], for which, under setting [1], the inhibitory constant (Ki) was at most 100 nM.
As for `Cc1cc(OCCCc2c(C(=O)NS(C)(=O)=O)[nH]c3cccc(Cl)c23)ccc1Cl` [Example 50, 4-chloro-3-(3-(4-chloro-3-methylphenoxy)propyl)-N-(methylsulfonyl)-1H-indole-2-carboxamide], under setting [1], the Ki was at most 100 nM.
As for `Cc1cc(OCCCc2c(C(=O)NS(=O)(=O)c3ccc(Oc4ccc(Cl)c(Cl)c4)cc3)[nH]c3cc(Cl)ccc23)cc(C)c1Cl` [Example 221, 6-chloro-3-(3-(4-chloro-3,5-dimethylphenoxy)propyl)-N-((4-(3,4-dichlorophenoxy)phenyl)sulfonyl)-1H-indole-2-carboxamide], the inhibition constant (Ki) fell in the range of 301 to 500 nM.
For `Cc1cc(OCCCc2c(C(=O)NS(=O)(=O)CCNC(=O)C(F)(F)F)[nH]c3cc(Cl)ccc23)cc(C)c1Cl` [Example 254, 6-chloro-3-(3-(4-chloro-3,5-dimethylphenoxy)propyl)-N-((2-(2,2,2-trifluoroacetamido)ethyl)sulfonyl)-1H-indole-2-carboxamide], the Ki was 101 to 299 nM.
For `Cc1cc(OCCCc2c(C(=O)NS(=O)(=O)CCNC(=O)C3CCCCC3)[nH]c3c(-c4c(CO)nn(C)c4C)cccc23)cc(C)c1Cl` [Example 205, 3-(3-(4-chloro-3,5-dimethylphenoxy)propyl)-N-((2-(cyclohexanecarboxamido)ethyl)sulfonyl)-7-(3-(hydroxymethyl)-1,5-dimethyl-1H-pyrazol-4-yl)-1H-indole-2-carboxamide], under setting [1], the inhibition constant (Ki) was at most 100 nM.
